# Results published in the supplement of paper PMC11061612.
# Legend:
# [1] = test system: OVMIU (Ovarian Carcinoma); experiment: Bliss excess, mean over the matrix (fraction); higher = more synergy
# In short: (§1)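 Cell lines grown in DMEM/F12 or RPMI with 10% FBS were plated in 1536-well plates and held 24 hours at 37°C, 5% CO2 before 72 hours of exposure to two-drug dose matrices, with DMSO typically at 0.2%. CellTiter-Glo 2.0 luminescence gave viability, which was converted to inhibition. Vehicle wells were set to 0 and blank wells to 1. Combination Emax is the second-highest inhibition in the matrix, and Bliss excess is the observed combination effect minus the expected EA + EB − EA·EB, where EA and EB are the single-agent effects.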
# [2] = test system: HEC-1 (Endometrial Carcinoma); experiment: as above
# In short: as §1
# [3] = test system: VAL (B-Cell Non-Hodgkin's Lymphoma); experiment: as above
# In short: as §1
# [4] = test system: SHP-77 (Small Cell Lung Carcinoma); experiment: combination Emax (second highest fraction inhibited in the dose matrix, 72 h); higher = more inhibition; extreme values may be limits of the assay
# In short: as §1
# [5] = test system: OVMIU (Ovarian Carcinoma); experiment: as above
# In short: as §1
# [6] = test system: OPM-2 (Plasma Cell Myeloma); experiment: as above
# In short: as §1
# [7] = test system: OAW-42 (Ovarian Carcinoma); experiment: as above
# In short: as §1
# [8] = test system: SU-DHL-10 (B-Cell Non-Hodgkin's Lymphoma); experiment: as above
# In short: as §1
# [9] = test system: NCI-H446 (Small Cell Lung Carcinoma); experiment: as above
# In short: as §1
# LN-229 (Glioblastoma) = experiment: as above
# In short: as §1
# WM278 (Melanoma) = experiment: as above
# In short: as §1
# [10] = test system: RKN (Other Solid Carcinomas); experiment: as above
# In short: as §1
# GB-1 (Glioblastoma) = experiment: as above
# In short: as §1
# [11] = test system: CAL-62 (Thyroid Gland Carcinoma); experiment: as above
# In short: as §1
# [12] = test system: LXF-289 (Lung Adenocarcinoma); experiment: as above
# In short: as §1
# A2058 (Melanoma) = experiment: as above
# In short: as §1
# [13] = test system: LB996-RCC (Kidney Carcinoma); experiment: as above
# In short: as §1
# [14] = test system: PANC-03-27 (Pancreatic Carcinoma); experiment: as above
# In short: as §1
# [15] = test system: SK-PN-DW (Other Solid Carcinomas); experiment: as above
# In short: as §1
# [16] = test system: TE-8 (Esophageal Squamous Cell Carcinoma); experiment: as above
# In short: as §1
# 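Wherever Bliss excess, mean over the matrix is given: after 72 h of two-drug dosing.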
Structure (SMILES),Bliss excess [1],Bliss excess [2],Bliss excess [3],combination Emax [4],combination Emax [5],combination Emax [6],combination Emax [7],combination Emax [8],combination Emax [9],combination Emax (LN-229 (Glioblastoma)),combination Emax (WM278 (Melanoma)),combination Emax [10],combination Emax (GB-1 (Glioblastoma)),combination Emax [11],combination Emax [12],combination Emax (A2058 (Melanoma)),combination Emax [13],combination Emax [14],combination Emax [15],combination Emax [16]
"CC(=O)Nc1cccc(-n2c(=O)n(C3CC3)c(=O)c3c(Nc4ccc(I)cc4F)n(C)c(=O)c(C)c32)c1 [Trametinib] + Cc1nc(-c2cn3c(n2)-c2ccc(-c4cnn(C(C)(C)C(N)=O)c4)cc2OCC3)n(C(C)C)n1 [Taselisib] (first compound max 1 µM, 7x7, partner max 10 µM)",0.0474,0.11,0.101,0.459,0.973,1,0.969,0.977,0.94,0.803,0.983,0.544,0.845,0.765,0.963,1,0.955,0.982,0.695,0.782
"CN(CCO)CC[C@H](CSc1ccccc1)Nc1ccc(S(=O)(=O)NC(=O)c2ccc(N3CCC([C@@H](O)c4ccccc4-c4ccc(Cl)cc4)CC3)cc2)cc1S(=O)(=O)C(F)(F)F [AZD4320] + Cn1cnc2c(F)c(Nc3ccc(Br)cc3Cl)c(C(=O)NOCCO)cc21 [Selumetinib] (first compound max 1 µM, 7x7, partner max 3 µM)",-0.0595,-0.018,0.0113,0.613,0.739,0.556,0.436,0.617,0.758,0.397,0.918,0.326,0.519,–,0.314,0.76,0.513,0.793,0.684,0.502
"Cn1cnc2c(F)c(Nc3ccc(Br)cc3Cl)c(C(=O)NOCCO)cc21 [Selumetinib] + CC(C)n1c(=O)n(C)c2cnc3cc(F)c(-c4ccc(OCCCN5CCCCC5)nc4)cc3c21 [AZD1390] (first compound max 10 µM, 7x7, partner max 0.3 µM)",-0.0444,-0.0412,-0.0424,0.15,0.402,0.192,0.192,0.0401,0.262,0.153,0.841,0.379,0.0241,0.219,0.146,0.426,0.181,0.42,0.139,0.546
"Cn1cnc2c(F)c(Nc3ccc(Br)cc3Cl)c(C(=O)NOCCO)cc21 [Selumetinib] + CCN(CCO)CCCOc1ccc2c(Nc3cc(CC(=O)Nc4cccc(F)c4)[nH]n3)ncnc2c1 [AZD2811] (first compound max 10 µM, 7x7, partner max 1 µM)",-0.038,-0.0402,-0.0614,0.362,0.407,0.356,0.194,0.738,0.91,0.286,0.581,0.352,0.117,0.291,0.514,0.649,0.343,0.534,0.572,0.347
"CN(CCO)CC[C@H](CSc1ccccc1)Nc1ccc(S(=O)(=O)NC(=O)c2ccc(N3CCC([C@@H](O)c4ccccc4-c4ccc(Cl)cc4)CC3)cc2)cc1S(=O)(=O)C(F)(F)F [AZD4320] + C[C@@H]1COCCN1C2=NC(=NC(=C2)C3(CC3)[S@](=N)(=O)C)C4=C5C=CNC5=NC=C4 [AZD6738] (first compound max 1 µM, 7x7, partner max 10 µM)",0.0069,0.0028,0.0095,0.662,0.824,0.927,0.748,0.899,0.941,0.797,0.789,0.242,0.55,0.936,0.689,0.782,0.837,0.926,0.947,0.799
"NC1(C(=O)N[C@@H](CCO)c2ccc(Cl)cc2)CCN(c2ncnc3[nH]ccc23)CC1 [Capivasertib] + C[C@@H]1COCCN1C2=NC(=NC(=C2)C3(CC3)[S@](=N)(=O)C)C4=C5C=CNC5=NC=C4 [AZD6738] (first compound max 10 µM, 7x7, partner max 10 µM)",-0.0471,-0.0205,-0.0735,0.424,0.62,1,0.644,1,0.904,0.597,0.579,0.272,0.563,0.784,0.778,0.805,0.823,0.521,0.925,0.706
"CC(=O)c1c(C)c2cnc(Nc3ccc(N4CCNCC4)cn3)nc2n(C2CCCC2)c1=O [Palbociclib] + CC1(C)CCC(CN2CCN(c3ccc(C(=O)NS(=O)(=O)c4ccc(NCC5CCOCC5)c([N+](=O)[O-])c4)c(Oc4cnc5[nH]ccc5c4)c3)CC2)=C(c2ccc(Cl)cc2)C1 [Venetoclax] (first compound max 10 µM, 7x7, partner max 1 µM)",-0.0402,-0.0489,-0.0109,0.671,0.149,0.38,0.105,1,0.462,0.0912,0.185,0.102,0.15,0.151,0.225,0.0912,0.318,0.131,0.257,0.286
"NC1(C(=O)N[C@@H](CCO)c2ccc(Cl)cc2)CCN(c2ncnc3[nH]ccc23)CC1 [Capivasertib] + CC(=O)c1c(C)c2cnc(Nc3ccc(N4CCNCC4)cn3)nc2n(C2CCCC2)c1=O [Palbociclib] (first compound max 10 µM, 7x7, partner max 10 µM)",-0.0168,-0.0115,-0.0051,0.499,0.383,0.987,0.548,1,0.719,0.376,0.402,0.182,0.476,0.422,0.691,0.638,0.781,0.283,0.615,0.48
"NC1(C(=O)N[C@@H](CCO)c2ccc(Cl)cc2)CCN(c2ncnc3[nH]ccc23)CC1 [Capivasertib] + Cn1cnc2c(F)c(Nc3ccc(Br)cc3Cl)c(C(=O)NOCCO)cc21 [Selumetinib] (first compound max 10 µM, 7x7, partner max 10 µM)",-0.0255,0.0234,-0.0242,0.384,0.585,1,0.548,1,0.657,0.484,0.722,0.479,0.588,0.557,0.62,0.895,0.678,0.517,0.597,0.624
"CC(=O)c1c(C)c2cnc(Nc3ccc(N4CCNCC4)cn3)nc2n(C2CCCC2)c1=O [Palbociclib] + Cc1c2c(nn1C)CSCc1cc(n(C)n1)CSc1cc(c3ccccc3c1)OCCCc1c(C(=O)O)n(C)c3c-2c(Cl)ccc13 [AZD5991] (first compound max 10 µM, 7x7, partner max 1 µM)",-0.0416,-0.0336,0.0533,0.646,0.27,1,0.223,1,0.556,0.228,0.156,0.151,0.238,0.308,0.6,0.753,0.397,0.202,0.787,0.427
"CN(CCO)CC[C@H](CSc1ccccc1)Nc1ccc(S(=O)(=O)NC(=O)c2ccc(N3CCC([C@@H](O)c4ccccc4-c4ccc(Cl)cc4)CC3)cc2)cc1S(=O)(=O)C(F)(F)F [AZD4320] + C1CN(CCC1(C(=O)N[C@@H](CCO)C2=CC=C(C=C2)Cl)N)C3=NC=NC4=C3C=CN4 [Capivasertib] (first compound max 1 µM, 7x7, partner max 3 µM)",-0.0691,-0.0759,0.0595,–,0.876,0.955,0.282,0.97,0.78,0,0.599,0.154,0.117,0.152,0.173,0.191,0.494,0.25,0.482,0.349
"CN(CCO)CC[C@H](CSc1ccccc1)Nc1ccc(S(=O)(=O)NC(=O)c2ccc(N3CCC([C@@H](O)c4ccccc4-c4ccc(Cl)cc4)CC3)cc2)cc1S(=O)(=O)C(F)(F)F [AZD4320] + CCN(CCO)CCCOc1ccc2c(Nc3cc(CC(=O)Nc4cccc(F)c4)[nH]n3)ncnc2c1 [AZD2811] (first compound max 1 µM, 7x7, partner max 1 µM)",-0.0627,-0.0049,-0.0063,0.65,0.802,0.693,0.14,0.759,0.991,0.185,0.635,–,0.117,0.488,0.471,0.47,0.485,0.638,0.719,0.583
